In ChEMBL document CHEMBL1148727, “Discovery of 1,4-dihydroxy-2-naphthoate [corrected] prenyltransferase inhibitors: new drug leads for multidrug-resistant gram-positive pathogens” (2007):
Converted amounts (≈) assume the structure as drawn.

How the values were obtained:
Assay type in all cases: functional
Staphylococcus aureus [1] = test: Antibacterial activity against Linezolid and methicillin-resistant Staphylococcus aureus 06 after 18 hrs by agar plate dilution method
Proteus mirabilis = test: Antibacterial activity against Proteus mirabilis IFO3849 by agar plate dilution method
Pseudomonas aeruginosa = test: Antibacterial activity against Pseudomonas aeruginosa 46001 by agar plate dilution method
Escherichia coli = test: Antibacterial activity against Escherichia coli NIHJ JC2 by agar plate dilution method
Klebsiella pneumoniae = test: Antibacterial activity against Klebsiella pneumoniae NCTN9632 by agar plate dilution method
Enterococcus faecalis [2] = test: Antibacterial activity against vancomycin-resistant Enterococcus faecalis NCTC-12201 after 18 hrs by agar plate dilution method
Enterococcus faecalis [3] = test: Antibacterial activity against vancomycin-resistant Enterococcus faecalis NCTC-12203 after 18 hrs by agar plate dilution method
Mycolicibacterium aurum = test: Antibacterial activity against Mycobacterium aurum after 18 hrs by agar plate dilution method
[4] = tested on: Mycolicibacterium fortuitum; test: Antibacterial activity against Mycobacterium fortuitum NIHJ1615 after 18 hrs by agar plate dilution method
[5] = tested on: Mycolicibacterium smegmatis; test: Antibacterial activity against Mycobacterium smegmatis Takeo after 18 hrs by agar plate dilution method
[6] = tested on: Mycobacterium intracellulare; test: Antibacterial activity against Mycobacterium intracellular ATCC 15984 after 18 hrs by agar plate dilution method; conditions: ATCC 15984, 18 h
[7] = tested on: Mycobacterium tuberculosis; test: Antibacterial activity against Mycobacterium tuberculosis H37Rv after 18 hrs by agar plate dilution method
Mycobacterium avium = test: Antibacterial activity against Mycobacterium avium Flamingo after 18 hrs by agar plate dilution method
Staphylococcus aureus [8] = test: Antibacterial activity against Staphylococcus aureus FDA209P after 18 hrs by agar plate dilution method
Staphylococcus aureus [9] = test: Antibacterial activity against methicillin-resistant Staphylococcus aureus 92-1191 after 18 hrs by agar plate dilution method
Staphylococcus aureus [10] = test: Antibacterial activity against Staphylococcus aureus Smith after 18 hrs by agar plate dilution method
Staphylococcus aureus [11] = test: Antibacterial activity against Staphylococcus aureus macrolide-resistance after 18 hrs by agar plate dilution method
Staphylococcus aureus [12] = test: Antibacterial activity against methicillin-resistant Staphylococcus aureus Mu50 after 18 hrs by agar plate dilution method; conditions: Mu50, 18 h
Staphylococcus aureus [13] = test: Antibacterial activity against vancomycin-resistant Staphylococcus aureus 70 after 18 hrs by agar plate dilution method
Staphylococcus aureus [14] = test: Antibacterial activity against methicillin-resistant Staphylococcus aureus after 18 hrs by agar plate dilution method

SMILES | MIC (Staphylococcus aureus [1]) | MIC (Proteus mirabilis) | MIC (Pseudomonas aeruginosa) | MIC (Escherichia coli) | MIC (Klebsiella pneumoniae) | MIC (Enterococcus faecalis [2]) | MIC (Enterococcus faecalis [3]) | MIC (Mycolicibacterium aurum) | MIC [4] | MIC [5] | MIC [6] | MIC [7] | MIC (Mycobacterium avium) | MIC (Staphylococcus aureus [8]) | MIC (Staphylococcus aureus [9]) | MIC (Staphylococcus aureus [10]) | MIC (Staphylococcus aureus [11]) | MIC (Staphylococcus aureus [12]) | MIC (Staphylococcus aureus [13]) | MIC (Staphylococcus aureus [14])
CC(=O)NC[C@H]1CN(c2ccc(N3CCOCC3)c(F)c2)C(=O)O1 [LINEZOLID] | 32 µg/mL (≈ 94.9 µM) | 128 µg/mL (≈ 379 µM) | > 128 µg/mL | 128 µg/mL (≈ 379 µM) | > 128 µg/mL | – | – | – | – | – | – | – | – | – | – | – | – | – | – | –
CN[C@H](CC(C)C)C(=O)N[C@H]1C(=O)N[C@@H](CC(N)=O)C(=O)N[C@H]2C(=O)N[C@H]3C(=O)N[C@H](C(=O)N[C@H](C(=O)O)c4cc(O)cc(O)c4-c4cc3ccc4O)[C@H](O)c3ccc(c(Cl)c3)Oc3cc2cc(c3O[C@@H]2O[C@H](CO)[C@@H](O)[C@H](O)[C@H]2O[C@H]2C[C@](C)(N)[C@H](O)[C@H](C)O2)Oc2ccc(cc2Cl)[C@H]1O [VANCOMYCIN] | – | > 128 µg/mL | > 128 µg/mL | > 128 µg/mL | > 128 µg/mL | > 128 µg/mL | > 128 µg/mL | – | – | – | – | – | – | – | – | – | – | – | – | –
NNC(=O)c1ccncc1 [ISONIAZID] | – | – | – | – | – | – | – | 6.3 µg/mL (≈ 45.9 µM) | 6.3 µg/mL (≈ 45.9 µM) | 12.5 µg/mL (≈ 91.1 µM) | 12.5 µg/mL (≈ 91.1 µM) | 0.1 µg/mL (≈ 0.729 µM) | > 25 µg/mL | – | – | – | – | – | – | –
CO[C@H]1/C=C/O[C@@]2(C)Oc3c(C)c(O)c4c(O)c(c(/C=N/N5CCN(C)CC5)c(O)c4c3C2=O)NC(=O)/C(C)=C\C=C\[C@H](C)[C@H](O)[C@@H](C)[C@@H](O)[C@@H](C)[C@H](OC(C)=O)[C@@H]1C [RIFAMPIN] | – | – | – | – | – | – | – | 0.78 µg/mL (≈ 0.948 µM) | > 25 µg/mL | > 25 µg/mL | 3.1 µg/mL (≈ 3.77 µM) | 0.2 µg/mL (≈ 0.243 µM) | 3.1 µg/mL (≈ 3.77 µM) | – | – | – | – | – | – | –
CN(CCCOC/C=C/COc1ccc(C(=O)c2ccc(Cl)cc2)c(O)c1)CCc1ccc(F)cc1 | 8 µg/mL (≈ 15.6 µM) | > 128 µg/mL | > 128 µg/mL | > 128 µg/mL | > 128 µg/mL | 8 µg/mL (≈ 15.6 µM) | 2 µg/mL (≈ 3.91 µM) | – | – | – | – | 12.5 µg/mL (≈ 24.4 µM) | – | 4 µg/mL (≈ 7.81 µM) | 4 µg/mL (≈ 7.81 µM) | 8 µg/mL (≈ 15.6 µM) | 4 µg/mL (≈ 7.81 µM) | 8 µg/mL (≈ 15.6 µM) | 4 µg/mL (≈ 7.81 µM) | 4 µg/mL (≈ 7.81 µM)
C=CCN(C)CCCCCCCCOc1ccc(C(=O)c2ccc(Cl)cc2)c(O)c1 | – | – | – | – | – | > 12.5 µg/mL | > 12.5 µg/mL | 6.3 µg/mL (≈ 14.7 µM) | 12.5 µg/mL (≈ 29.1 µM) | 12.5 µg/mL (≈ 29.1 µM) | 6.3 µg/mL (≈ 14.7 µM) | 1.5 µg/mL (≈ 3.49 µM) | 6.3 µg/mL (≈ 14.7 µM) | > 12.5 µg/mL | – | > 12.5 µg/mL | – | > 12.5 µg/mL | – | –
